Measurements as given in patent publication US5102873A (priority 1989, dated 1992).
In brackets after ≈: the same amount, converted by molar mass. Several values for one entry are separate records, joined by “and”; a condition that tells them apart may be missing. Identical values can stand only once.

Legend:
[1] = system: vaccinia virus; test: microbe, parasite or virus in culture; assay type: cell-based; details: for IC50: Orthopoxvirus vaccinia, Vero, read-out: ID50 (inhibitory dose 50; 50% reduction in virus replication), vaccinia virus in Vero cells, called MIC50; for TI (therapeutic index, MTC/ID50) / Virus Rating (VR): Vero cells; for TI (therapeutic index, MTC/ID50): TI>50 indicates a useful compound; for Virus Rating (VR): VR >=1.0 significant, 0.5-0.9 marginal, <0.5 inactive, repeat lines are repeat tests
[2] = Cytotoxicity of test compound to Vero host cells (minimum toxic concentration); details: monkey, MTC (minimum toxic concentration), footnote: lowest concentration giving 50% reduction in percent survival of viable host cells

Structure (SMILES)	IC50 [1]	TI (therapeutic index, MTC/ID50) [1]	MCC [2]	Virus Rating (VR) [1]
N#Cc1ccc(COn2cnc3c(ncn3[C@@H]3O[C@H](CO)[C@@H](O)[C@H]3O)c2=N)cc1.[O-][Cl+3]([O-])([O-])O [Compound 2v, 1-(4-Cyanobenzyloxy)adenosine, perchloric acid salt]	3.2 µg/mL	100 and 134	> 320 µg/mL	
CNc1c2ncn([C@@H]3O[C@H](CO)[C@@H](O)[C@H]3O)c2nc[n+]1[O-] [Compound 1c, 6-Methylamino-9-β-D-ribofuranosylpurine-N^1-oxide]	0.45 µg/mL (≈ 1.51 µM)	708	320 µg/mL	> 2.4
Cc1ccc(COn2cnc3c(ncn3[C@@H]3O[C@H](CO)[C@@H](O)[C@H]3O)c2=N)c(C)c1.[O-][Cl+3]([O-])([O-])O [Compound 2cc, 1-(2,4-Dimethylbenzyloxy)adenosine, perchloric acid salt]	0.08 µg/mL	4110 and 3890	320 µg/mL	2.9
Cc1ccc(COn2cnc3c(ncn3[C@@H]3O[C@H](CO)[C@@H](O)[C@H]3O)c2=N)cc1C.[O-][Cl+3]([O-])([O-])O [Compound 2z, 1-(3,4-Dimethylbenzyloxy)adenosine, perchloric acid salt]	0.32 µg/mL	> 1000 and > 1760	320 µg/mL	
N=c1c2ncn([C@@H]3O[C@H](CO)[C@@H](O)[C@H]3O)c2ncn1OCc1cccc(F)c1.[O-][Cl+3]([O-])([O-])O [Compound 2h, 1-(3-Fluorobenzyloxy)adenosine, perchloric acid salt]	0.98 µg/mL	325 and 285	> 320 µg/mL	
N=c1c2ncn([C@@H]3O[C@H](CO)[C@@H](O)[C@H]3O)c2ncn1OCc1cccc(Cl)c1.[O-][Cl+3]([O-])([O-])O [Compound 2p, 1-(3-Chlorobenzyloxy)adenosine, perchloric acid salt]	1.08 µg/mL	295 and 193	> 320 µg/mL	
